Consider 29 compounds from patent US20250387375A1, “SOFALCONE DERIVATIVES AND MEDICAL USE THEREOF” (KAOHSIUNG MEDICAL UNIVERSITY, priority 2024, published 2025).

The subject of experiment [1] is human platelet suspension (platelet aggregation caused by collagen). Briefly: Platelet aggregation reaction test, collagen-induced. To be noted: read-out: Collagen IC 50. Format: cell-based. As for the experimental part: (§1) Blood samples were collected from healthy donors, and acid-citrate-dextrose (ACD) solution was used as an anticoagulant. The blood samples were centrifuged to obtain platelets, and residual plasma was removed by washing to prepare platelet suspension.
(§2) In the experimental method, a platelet aggregometer (Chrono-Log Co., Havertown, PA, USA) was used for tests. The compound to be tested was added to the platelet suspension and reacted for 3 minutes at 37° C. with stirring (1200 rpm). Then, platelet stimulator U46619 or collagen was added to initiate platelet aggregation, and the test time was 5 minutes. The principle of the platelet aggregation test was: when platelets were stimulated to induce aggregation reaction, the light transmission of the platelet suspension would increase; by calculating changes in light transmission of the platelet suspension before and after being stimulated, the percentage of platelet aggregation could be obtained.

The subject of experiment [2] is human platelet suspension (platelet aggregation caused by TxA2 agonist U46619). In words: Platelet aggregation reaction test, U46619-induced. It counts as cell-based. The protocol: as §1, §2

Take `O=C(O)CCCCCOc1ccccc1C(=O)CCc1ccccc1` [Compound 116]: the IC50 in experiment [1] worked out at 4.46 µM; in experiment [2] it was 0.2 µM.

As for `CCCCCCOc1ccc(C=CC(=O)c2ccc(OCCCCCC)cc2OCC(=O)OC)cc1` [Compound 91], the IC50 in experiment [1] and in experiment [2] was > 50 µM throughout.

`CC(C)=CCOc1ccc(C=CC(=O)c2ccccc2OCCCCC(=O)O)cc1` [Compound 102]: the IC50 in experiment [1] was 3.14 µM; in experiment [2], 2.42 µM.

`COC(=O)COc1cc(OCc2ccc(OC)cc2)ccc1C(=O)C=Cc1ccc(OCc2ccc(OC)cc2)cc1` [Compound 87]: the IC50 in experiment [1] and in experiment [2] was > 100 µM each time.

On to `CCOC(=O)CCCCCOc1ccccc1C(=O)C=Cc1ccccc1` [Compound 111], for which the IC50 in experiment [1] came to 0.22 µM; in experiment [2] it was 0.16 µM.

For `O=C(O)CCCOc1cc(O)ccc1C(=O)C=Cc1ccc(O)cc1` [Compound 70], the IC50 in experiment [1] stood at 6.55 µM; in experiment [2], 5.43 µM.

For `CC(C)=CCOc1ccc(C(=O)C=Cc2cccs2)c(OCCCCCC(=O)O)c1` [Compound 55], the values for the IC50 in experiment [1] and in experiment [2] were 4.4 µM and 5.37 µM, respectively.

For the compound `COc1ccc(/C=C/C(=O)c2ccc(OC)cc2OCC(=O)O)cc1` [Compound 18], the IC50 in experiment [1] is 96.2 µM; in experiment [2], > 100 µM.

For the compound `O=C(O)CCCCCOc1ccccc1C(=O)C=Cc1cccs1` [Compound 51], the IC50 in experiment [1] was 0.62 µM; in experiment [2], 0.57 µM.

Regarding `CCOC(=O)CCCOc1ccccc1C(=O)C=Cc1ccc(OCC=C(C)CCC=C(C)C)cc1` [Compound 8], the IC50 in experiment [1] worked out at 4.24 µM; in experiment [2] it was 2.78 µM.

Take `CCOC(=O)COc1ccccc1C(=O)C=Cc1ccco1` [Compound 65]: the results for the IC50 in experiment [1] and in experiment [2] were 3.13 µM and 78.4 µM, respectively.

Turning to `CC(C)=CCCC(C)=CCOc1ccc(C(=O)C=Cc2ccccc2)c(OCCCC(=O)O)c1` [Compound 7], the IC50 in experiment [1] came out at 4.03 µM; in experiment [2], 0.49 µM.

With `CC(C)=CCOc1ccc(C(=O)/C=C/c2ccc([N+](=O)[O-])cc2)c(OCC(=O)O)c1` [Compound 25], the results for the IC50 in experiment [1] and in experiment [2] were 49.2 µM and 43.8 µM, respectively.

As for `CCCCCCCCCCOc1ccc(C=CC(=O)c2ccc(OCCCCCCCCCC)cc2OCC(=O)O)cc1` [Compound 97], the IC50 in experiment [1] and in experiment [2] was > 50 µM each time.

`CC(C)=CCOc1ccc(C(=O)/C=C/c2ccc(F)cc2)c(OCC(=O)O)c1` [Compound 23]: the results for the IC50 in experiment [1] and in experiment [2] were 33.5 µM and 22.2 µM, respectively.

Turning to `O=C(O)CCCCCOc1ccccc1C(=O)C=Cc1nccs1` [Compound 80], the IC50 in experiment [1] came out at 62.7 µM; in experiment [2] it was 51.5 µM.

Take `O=C(O)CCCCCOc1ccccc1C(=O)/C=C/c1ccccc1F` [Compound 1]: the IC50 in experiment [1] worked out at 0.07 µM; in experiment [2], 0.51 µM.

Take `CCCCOc1ccc(C=CC(=O)c2ccc(OCCCC)cc2OCC(=O)OC)cc1` [Compound 90]: the IC50 in experiment [1] and in experiment [2] was > 100 µM in each case.

Consider `CCOC(=O)COc1cc(OC)ccc1C(=O)C=Cc1ccc(OC)cc1` [Compound 48], for which the IC50 in experiment [1] and in experiment [2] was > 100 µM each time.

Regarding `O=C(O)COc1ccccc1C(=O)C=Cc1ccco1` [Compound 56], the figures for the IC50 in experiment [1] and in experiment [2] were 38.3 µM and 72.2 µM, respectively.

Turning to `CCOC(=O)CCCCCOc1ccccc1C(=O)C=Cc1ccccn1` [Compound 63], the figures for the IC50 in experiment [1] and in experiment [2] were 6.05 µM and 4.57 µM, respectively.

In the case of `CC(C)=CCCC(C)=CCOc1ccc(C=CC(=O)c2ccc(F)cc2OCCCC(=O)O)cc1` [Compound 10], the IC50 in experiment [1] is 52.5 µM; in experiment [2] it was 5.24 µM.

As for `O=C(O)COc1ccccc1C(=O)C=Cc1ccccn1` [Compound 59], the IC50 in experiment [1] came to 33.8 µM; in experiment [2], 72.1 µM.

For `CCOC(=O)CCCOc1cc(OCC=C(C)C)ccc1C(=O)C=Cc1cccs1` [Compound 64], the IC50 in experiment [1] is 3.85 µM; in experiment [2] it was 5.87 µM.

As for `O=C(O)CCCCOc1ccccc1C(=O)C=Cc1ccccc1` [Compound 101], the IC50 in experiment [1] was found to be 3.25 µM; in experiment [2], 3.53 µM.

For `COC(=O)COc1cc(OCC=C(C)C)ccc1C(=O)CCc1ccc(OCC=C(C)C)cc1` [Compound 74], the IC50 in experiment [1] and in experiment [2] was > 100 µM in each case.

Take `CCOC(=O)CCCCCOc1ccccc1C(=O)C=Cc1cccc(F)c1` [Compound 39]: the values for the IC50 in experiment [1] and in experiment [2] were 0.07 µM and 0.05 µM, respectively.

As to `CC1=C(C)C(=O)C(C(CCCCCC(=O)O)c2ccccc2)=C(C)C1=O` (stereo not shown) [Seratrodast, reference compound], the IC50 in experiment [1] stood at 5.27 µM; in experiment [2], 0.71 µM.

As to `O=C(O)CCCCCOc1ccccc1C(=O)/C=C/c1cccc(F)c1` [Compound 2], the IC50 in experiment [1] and in experiment [2] was 0.05 µM in each case.
